Key:
[1] = tested on: all rCYP450s (rCYP1A2, rCYP2C9, rCYP2C19, rCYP2D6, rCYP3A4); assay: luminogenic CYP450 inhibition assay, statement over all five rCYP450s
Source text: The luminescent cytochrome P450 assay was used to determine CYP450-mediated (CYP1A2, 2C9, 2C19, 2D6, and 3A4) metabolism of atractylodin and β-eudesmol. The assay consisted of each recombinant human CYP450 (rCYP450), control membranes lacking P450 activity, a luminogenic CYP450 substrate (luciferin-ME substrate for rCYP1A2, luciferin-H substrate for rCYP2C9, luciferin-H EGE substrate for rCYP2C19, luciferin-ME EGE substrate for rCYP2D6, and luciferin-IPA substrate for rCYP3A4), KPO4 buffer, luciferin free water, NADPH regeneration system, and a luciferin detection reagent. The rCYP450 enzymes were generated from a baculovirus-infected insect cell expression system. The concentrations of the recombinant CYPs used were 0.5 (rCYP1A2 and rCYP2C9), 0.25 (rCYP2C19 and rCYP2D6) or 0.2 (rCYP3A4) pmol (0.5μL) per reaction. […] A luciferin product was produced after adding 25 µL of NADPH Regeneration System (solution A, solution B, and luciferin-free water) and incubated at 37 °C for 10 (rCYP1A2 and rCYP3A4), 20 (rCYP2C19 and rCYP2C9) or 30 (rCYP2D6) minutes. The reaction was stopped and converted to a luminescent signal after adding Luciferin Detection Reagent (50 µL) and incubated at 25 °C for 20 min. The luminescence signals obtained were determined using a Varioskan® Flash microplate reader (Waltham, MA, USA). The magnitude of luminescence in all of the samples represented CYP450 activity. […]

hCYP2C9 = tested on: hCYP2C9; parameters: method as in PMID 35139770; details: ligand-binding difference spectroscopy; cited from earlier work

Row | Compound | inhibitory effects on all rCYP450s (potency class) [1] | binding to hCYP2C9 (hCYP2C9)
1 | C/C=C/C#CC#C/C=C/c1ccco1 [Atractylodin] | weak (weak (IC50 ≥ 50 µM)) | –
2 | C=C1CCC[C@]2(C)CC[C@@H](C(C)(C)O)C[C@@H]12 [β-Eudesmol] | – | not

From publication PMC10095747, “Modulatory Effects of Atractylodin and β-Eudesmol on Human Cytochrome P450 Enzymes: Potential Drug-Drug Interactions” (Molecules, 2023)
